Data reported in patent US20080009551A1, “Methods and Compositions for Identifying Modulators of G Protein-Coupled Receptors” (Arena Pharmaceuticals, Inc., priority 2003, published 2008).

Assays:
histamine receptor H3 = conditions: FIG. 14
niacin receptor = test: Upregulation of GURC-modified niacin receptor (luciferase assay); assay type: cell-based; conditions: FIG. 15A
β2 adrenergic receptor = test: Upregulation of GURC-modified β2 adrenergic receptor (luciferase assay); assay type: cell-based; conditions: FIG. 15B

Sequence of histamine receptor H3 (as listed by the source): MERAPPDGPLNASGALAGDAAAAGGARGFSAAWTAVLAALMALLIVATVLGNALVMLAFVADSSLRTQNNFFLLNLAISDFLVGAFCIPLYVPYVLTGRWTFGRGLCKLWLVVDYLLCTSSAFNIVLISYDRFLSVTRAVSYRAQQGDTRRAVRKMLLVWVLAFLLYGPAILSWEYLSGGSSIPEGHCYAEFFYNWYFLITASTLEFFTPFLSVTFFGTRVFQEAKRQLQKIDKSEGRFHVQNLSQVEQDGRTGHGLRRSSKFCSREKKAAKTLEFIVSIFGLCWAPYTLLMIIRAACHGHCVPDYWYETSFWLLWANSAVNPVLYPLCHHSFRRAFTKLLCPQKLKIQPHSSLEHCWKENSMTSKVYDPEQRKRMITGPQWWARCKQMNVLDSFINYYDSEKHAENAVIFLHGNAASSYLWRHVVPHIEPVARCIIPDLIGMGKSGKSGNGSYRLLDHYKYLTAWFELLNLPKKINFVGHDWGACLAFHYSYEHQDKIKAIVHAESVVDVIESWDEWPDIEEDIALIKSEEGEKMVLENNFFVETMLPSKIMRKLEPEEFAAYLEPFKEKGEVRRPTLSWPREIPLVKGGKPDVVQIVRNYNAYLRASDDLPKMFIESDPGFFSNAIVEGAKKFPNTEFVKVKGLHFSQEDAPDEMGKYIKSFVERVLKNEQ

Compound | potency at histamine receptor H3 (histamine receptor H3) | upregulation of the niacin receptor (niacin receptor) | upregulation of the β2 adrenergic receptor (β2 adrenergic receptor)
Methyl histamine | low potency | – | –
Nc1ncnc2c1ncn2[C@@H]1O[C@H](COP(=O)(O)OP(=O)(O)OC[C@@H]2O[C@H]([n+]3cccc(C(=O)[O-])c3)[C@@H](O)[C@H]2O)[C@@H](O)[C@H]1OP(=O)(O)O [NAADP-β] | – | dose-dependent upregulation | lack of dose-dependent upregulation
COC(=O)c1cccnc1 [methyl nicotinate] | – | dose-dependent upregulation | lack of dose-dependent upregulation
